Reference: patent publication US6825185B2, “Substituted aryl compounds as novel cyclooxygenase-2 selective inhibitors, compositions and methods of use” (NitroMed, Inc., priority 2000, dated 2004)

Legend:
COX-1 [1] = biological target: T1, COX-1 (Homo sapiens, UniProt P23219); assay: Human COX-1 enzyme activity (COX Inhibitor Screening Assay, prostaglandin EIA); format: biochemical; parameters: purchased Cayman Chemical; details: test compound at 100 μM
Description: The human COX-1 and COX-2 enzyme activities and the measurement of the prostaglandin products synthesized were performed using the COX Inhibitor Screening Assay (Cayman Chemical, Ann Arbor, Mich.), which also contained the Prostaglandin Screening EIA Kit, used for prostaglandin quantification). The test compounds were dissolved at 50 times the highest final reaction concentration in DMSO or any other suitable solvent as stock solutions. These stock solutions were then diluted in the same solvent. Eight glass test tubes (13×100 mm) were placed in a 25° C. water bath. To each test tube was added 950 μL of reaction buffer (0.1 M Tris-HCl, pH 8.0, containing 5 mM EDTA, and 2 mM phenol), 10 μL of 100 µM heme solution, and 10 μL (5 units) of either human COX-1 or COX-2 enzyme and the resulting mixture was incubated for 2 minutes. Twenty μL of the solvent was added to one tube (100% initial activity or solvent control) and 20 μL of each dilution of the test compound was added to one tube each. Each tube was vortexed immediately after the addition. The enzyme was incubated with the inhibitor for 20 minutes at 25° C. The enzymatic reaction was then initiated by the addition of 10 μL of freshly prepared 10 mM arachidonic acid (neutralized with KOH), vortexed and then incubated for 2 minutes (or, in some cases as indicated, 30 seconds) at 37° C. The reaction was terminated by the addition of 50 μL of 1 M HCl, vortexed and placed at room temperature. One hundred μL of a saturated stannous chloride solution (50 mg/mL of 0.1 M HCl) was added and the reaction mixture was allowed to stand at room temperature for at least 5 minutes.
The prostaglandins (PG) produced in the reactions were assayed, after a 2,000-fold dilution, using the Prostaglandin Screening EIA Kit (Cayman Chemical, Ann Arbor, Mich.). The assay contains an antibody with broad specificity for all the prostaglandin families (PGF, PGE, PGD, and thromboxane B-type) synthesized in the COX-1/COX-2 reactions. The synthesized prostaglandin competes with a PG-tagged acetylcholine esterase tracer for binding to the PG antibody. Binding of synthesized PG lowers the colorimetric development of the Ellman's Reagent (computed as %B/B0). The actual amount of synthesized PG was interpolated from a standard curve using known amounts of supplied prostaglandin E2 (PGE2) (PGE2 concentration vs. %B/B0). The data generated were the mean±standard deviation of triplicate wells in the EIA for a single reaction at a given inhibitor concentration. A plot of % of control (i.e., the solvent control without inhibitor) vs. test compound inhibitor concentration for both isoenzymes was used to determine the IC50 's for COX-1 and COX-2 for that test compound, when IC50's were calculated. The % inhibition for COX-1 and COX-2 enzyme activity by the test compounds at the indicated concentrations are given in Table 1.

COX-1 [2] = biological target: T1, COX-1; assay: COX-1 enzyme activity in human whole blood (A23187 stimulated, thromboxane B2 EIA); format: cell-based; parameters: Human blood (≈50 mL) from male or female donors who had not received any aspirin or NSAIDs for 14 days; endogenous in cells; host or cells: human whole blood from donors; details: test compound at 100 μM
Description: (§1) The assay for COX-1 and COX-2 enzyme activity, in the human whole blood was performed as described in Brideau et al., Inflamm Res., 45: 68-74 (1996)). Human blood (≈50 mL) from male or female donors who had not received any aspirin or NSAIDs for 14 days was collected at two local area blood donor centers and placed in polypropylene syringes containing sodium heparin (20 units per mL blood, final concentration). The blood was transported to the laboratory on ice packs and used within 1.5 hours of collection. Upon receipt in the laboratory, the blood was allowed to come to room temperature for 15 minutes prior to distribution in 1 mL aliquots per well of 24 well tissue culture plates. The plates were then placed on a gently rotating platform shaker in a 5% CO2 incubator at 37° C. for 15 minutes. Test compounds were dissolved in DMSO, at 1000 fold the final desired concentration, and further diluted, as indicated, in DMSO. One μL of each dilution of the test compound was added per well, in duplicate wells; wells not receiving test compound (e.g., basal, background or control wells) received 1 μL DMSO.
(§2) To induce COX-2, lipopolysaccharide (LPS) from E. coli (LPS, serotype 026:B6 or serotype 0127:B8, Sigma Chemical Co., St. Louis, Mo., Catalogue No. L3755 or L3129, respectively) was added at 10 μg/mL (2 μL of 5 mg/mL LPS in DMSO) to appropriate wells 15 minutes after the addition of the test compound. (Basal or background wells not incubated with LPS received 2 μL of DMSO.) For the stimulation of COX-1, the calcium ionophore, A23187 (free acid from Sigma Chemical Co., St. Louis, Mo., Catalogue No. C7522) was added at 25 μM (1 μL of 25 mM stock in DMSO) to separate wells 4.5 hours after the addition of the test compound. (Again, basal, background or control wells not stimulated with A23187 received 1 μL of DMSO.) At 5 hours after the addition of the test compound, all incubations were terminated by placement on ice and the addition of 2 mM EGTA (100 μL of 20 mM EGTA, tetrasodium, in PBS (phosphate buffered saline) without Ca^++ and Mg^++, pH 7.2)). The resulting solutions, were transferred by polyethylene transfer pipettes to 15 mL polypropylene centrifuge tubes and centrifuged at 1200 g for 10 minutes at 4° C. One hundred μL of plasma was removed from each blood sample and added to 1 mL of methanol in new 15 mL polypropylene centrifuge tubes, vortexed, and stored overnight at −20° C. The next day, the samples were centrifuged at 2000 g for 10 minutes at 4° C. and the supernatants transferred to glass tubes and evaporated to dryness. The samples were assayed for thromboxane B2 using EIA kits supplied by Cayman Chemical Co. (Ann Arbor, Mich., Catalogue No. 519031) in duplicate wells after reconstitution with EIA Buffer and appropriate dilution (2000 fold for COX-1 and 500 fold for Cox-2 samples).

COX-2 = biological target: T2, COX-2 (Homo sapiens, UniProt P35354); assay: COX-2 enzyme activity in human whole blood (LPS induced, thromboxane B2 EIA); format: cell-based; parameters: Human blood (≈50 mL) from male or female donors who had not received any aspirin or NSAIDs for 14 days; endogenous in cells; host or cells: human whole blood from donors, LPS-induced; details: test compound at 10 μM
T2 sequence (P35354 18-604): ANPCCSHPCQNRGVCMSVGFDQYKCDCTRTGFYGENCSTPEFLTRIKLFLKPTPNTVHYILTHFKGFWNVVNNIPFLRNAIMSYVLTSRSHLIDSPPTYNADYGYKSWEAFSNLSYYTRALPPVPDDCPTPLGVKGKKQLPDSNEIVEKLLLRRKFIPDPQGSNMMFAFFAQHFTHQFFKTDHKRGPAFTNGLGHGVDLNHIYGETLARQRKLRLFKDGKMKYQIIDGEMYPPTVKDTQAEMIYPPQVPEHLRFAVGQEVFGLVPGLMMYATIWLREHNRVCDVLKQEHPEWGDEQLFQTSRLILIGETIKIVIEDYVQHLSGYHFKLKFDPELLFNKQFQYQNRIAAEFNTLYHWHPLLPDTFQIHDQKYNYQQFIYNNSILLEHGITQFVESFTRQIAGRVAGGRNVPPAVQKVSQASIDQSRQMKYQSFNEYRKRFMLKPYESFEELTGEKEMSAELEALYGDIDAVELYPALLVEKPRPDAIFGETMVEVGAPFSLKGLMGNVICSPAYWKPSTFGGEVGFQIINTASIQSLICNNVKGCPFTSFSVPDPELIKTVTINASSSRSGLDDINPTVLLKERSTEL
Description: as §1, with “Human” for “The assay for COX-1 and COX-2 enzyme activity, in the human whole blood was performed as described in Brideau et al., Inflamm Res., 45: 68-74 (1996)). Human”
as §2, with “(Basal or background wells not incubated with LPS received 2 μL of DMSO.) For the stimulation of COX-1, the calcium ionophore, A23187 (free acid from Sigma Chemical Co., St. Louis, Mo., Catalogue No. C7522) was added at 25 μM (1 μL of 25 mM stock in DMSO) to separate wells 4.5 hours after the addition of the test compound.” left out, “dryness.” for “dryness. The samples were assayed for thromboxane B2 using EIA kits supplied by Cayman Chemical Co. (Ann Arbor, Mich., Catalogue No. 519031) in duplicate wells after reconstitution with EIA Buffer and appropriate dilution (2000 fold for COX-1 and 500 fold for Cox-2 samples).”

T1 sequence (P23219 24-599): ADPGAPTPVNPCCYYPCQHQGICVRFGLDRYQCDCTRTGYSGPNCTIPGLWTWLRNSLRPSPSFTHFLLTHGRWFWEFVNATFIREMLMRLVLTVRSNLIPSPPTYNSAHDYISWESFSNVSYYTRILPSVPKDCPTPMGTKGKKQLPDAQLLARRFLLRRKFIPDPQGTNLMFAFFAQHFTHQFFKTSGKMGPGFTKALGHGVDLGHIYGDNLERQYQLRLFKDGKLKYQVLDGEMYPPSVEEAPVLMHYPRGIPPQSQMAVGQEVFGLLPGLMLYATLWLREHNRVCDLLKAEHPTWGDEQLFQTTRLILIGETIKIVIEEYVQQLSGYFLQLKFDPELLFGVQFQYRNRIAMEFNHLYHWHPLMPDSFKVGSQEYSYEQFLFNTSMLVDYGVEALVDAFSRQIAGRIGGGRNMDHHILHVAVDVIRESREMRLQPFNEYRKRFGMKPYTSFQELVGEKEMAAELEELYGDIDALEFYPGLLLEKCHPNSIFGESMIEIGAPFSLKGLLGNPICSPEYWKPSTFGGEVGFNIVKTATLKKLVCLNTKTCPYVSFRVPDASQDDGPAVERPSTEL

| inhibition at 100 µM (COX-1 [2]) | inhibition at 10 µM (COX-2) | Compound | COX-1 Inhibition (% at 100 μM) (COX-1 [1]) | COX-1 Inhibition (% at 100 μM) (COX-1 [2]) | COX-2 Inhibition (% at 10 μM) (COX-2) |
| --- | --- | --- | --- | --- | --- |
|  |  | CS(=O)(=O)c1ccc(-c2cc3c(cc2C=C2CCCCC2)OCO3)cc1 [Example 1d, 1-(6-(Cyclohexylidenemethyl)(2-H-benzo(3,4-d) 1,3-dioxolen-5-yl))-4-(methylsulfonyl)benzene] | 5% | 50% |  |
|  |  | COc1cc(Cc2cc(F)cc(F)c2)c(-c2ccc(S(C)(=O)=O)cc2)cc1OC [Example 17d, 5-(1-(3′,5′-Difluorophenyl)methyl)-1,2-dimethoxy-4-(4-methylsulfonylphenyl)benzene] |  | 25% | 20% |
|  |  | CS(=O)(=O)c1ccc(-c2cc(O)c(O)cc2Cc2cc(F)cc(F)c2)cc1 [Example 17e, 5-(1-(3′,5′-Difluorophenyl)methyl)-1,2-dihydroxy-4-(4-methylsulfonylphenyl)benzene] |  | 35% | 25% |
|  |  | CCOC(=O)C1(C(=O)OCC)Oc2cc(Cc3cc(F)cc(F)c3)c(-c3ccc(S(C)(=O)=O)cc3)cc2O1 [Example 17f, 1,2-(Bis(ethoxycarbonyl))methylenedioxy-5-(1-(3′,5′-difluorophenyl)methyl)--4-(4-methylsulfonylphenyl)benzene] |  | 10% | 25% |
|  |  | CS(=O)(=O)c1ccc(-c2cc(O)c(O)cc2C(=O)c2cc(F)cc(F)c2)cc1 [Example 17h, 4-(1-(3′,5′-Difluorophenyl)-1-oxomethyl)-1,2-hydroxy-5-(4-methylsulfonylphenyl)benzene] |  | 65% | 55% |
|  |  | CS(=O)(=O)c1ccc(-c2cc3c(cc2Cc2cc(F)cc(F)c2)OC(C(=O)NCCO)CO3)cc1 (centres unmarked) [Example 18b, (7-((3,5-Difluorophenyl)methyl)-6-(4-(methylsulfonyl)phenyl)(2H, 3H-benzo(e)1,4-dioxin-2-yl))-N-(2-hydroxyethyl)carboxamido] |  | 50% | 25% |
| 90% | 40% | CS(=O)(=O)c1ccc(-c2cc3c(cc2Cc2cc(F)cc(F)c2)OCC(C(=O)NCCO)O3)cc1 (centres unmarked) [Example 18c, (6-((3,5-Difluorophenyl)methyl)-7-(4-(methylsulfonyl)phenyl)(2H, 3H-benzo(e)1,4-dioxin-2-yl))-N-(2-hydroxyethyl)carboxamide] |  |  |  |
|  |  | CS(=O)(=O)c1ccc(-c2cc3c(cc2Cc2cc(F)cc(F)c2)OC(C(=O)NCCO[N+](=O)[O-])CO3)cc1 (centres unmarked) [Example 18d, (7-((3,5-Difluorophenyl)methyl)-6-(4-(methylsulfonyl)phenyl)(2H, 3H-benzo(e)1,4-dioxin-2-yl))-N-(2-(nitrooxy)ethyl)carboxamido] |  | 60% | 40% |
|  |  | O=[N+]([O-])OCc1ccc(-c2cc3c(cc2Cc2cc(F)cc(F)c2)OCO3)cc1 [Example 23d, ((4-(6-((3,5-Difluorophenyl)methyl)(2H-benzo(3,4-d)1,3-dioxolan-5-yl))phenyl)methyl)nitrooxy] |  | 65% | 30% |
|  |  | Ethyl 7-((3,5-difluorophenyl)methyl)-6-(4-(methylsulfonyl)phenyl)-2H, 3H-benzo(e)1,4-dioxin-2-carboxylate and ethyl 6-((3, 5-difluorophenyl)methyl)-7-(4-(methylsulfonyl)phenyl)-2H, 3H-benzo(e)1,4-dioxin-2-carboxylate [Example 18a] |  | 90% | 65% |
